Laboratory results: patent publication US11591366B2, “Macrocyclic compounds and methods of preventing or treating pain” (SOCPRA SCIENCES SANTÉ ET HUMAINES S.E.C., priority 2017, dated 2023)
Like-named read-outs stand apart in the source and are kept apart here. Numbered stars: 1 amine (or outer) side, 2 acyl side, 3 side chain; on linkers, the order of the positions; unused ones are H or OH. Square brackets hold non-standard residues; d marks the D form. Peptide text beside a SMILES is read from it. X3 = NCCCC[C@H](N)CN([C@@H](CCCCN)C(=O)[*:2])[*:1]; Tle = CC(C)(C)[C@H](N)C(=O)O

Columns and labels:
[1] = molecular target: T1, hNTS1 (β-arrestin 2 recruitment) (Homo sapiens, UniProt P30989); experiment: BRET biosensor assay, β-arrestin 2 recruitment; type: cell-based
T1 construct: expressed in transfected cells; host or cells: CHO-K1, transient transfection with PEI
Protocol: CHO-K1 cells were cultured in DMEM-F12 supplemented with 10% FBS, 100 U/mL penicillin, 100 μg/mL streptomycin, and 20 mM HEPES at 37° C. in a humidified chamber at 5% CO2. Cells were seeded into T75 flasks at a density of 20 000 cells/cm^2; 24 h later, cells were transfected with plasmids coding for hNTS1-Green fluorescent protein 10(GFP10)/Rluc (Renilla Luciferase)II-β-arrestin 1 or hNTS1-GFP10/RlucII-β-arrestin2, or with hNTS1/Gαq-RlucII/Gβ1/IGFP10-Gγ1 or hNTS1/Gα13-RlucII/Gβ1/GFP10-Gγ1 using polyethylenimine (PEI). Cells were transferred into 96-well plates at a concentration of 50 000 cells/well 24 h after transfection and incubated at 37° C. overnight. They were then washed with PBS and 90 μL HBSS was added in each well. […] After stimulation, coelenterazine 400A was added in each well to a final concentration of 5 μM and the plate was read using filter selected for BRET2 measurement (BRET2 High efficiency filter set, λemRlucII: 410±80 nm, λemGFP10: 515±40 nm) on a Mithras 2 plate reader (Berthold Technologies, Tennessee, USA). BRET2 ratio was determined as GFP10em/RlucIIem. […] EC50 (Effective Concentration 50) values were determined using the dose response-stimulation log(agonist) vs response (three parameters) and represent the mean±SEM of at least three separate experiments, each performed in triplicate.
NTS1 is capable of activating several signaling pathways, thus the activation of Gαq, Gα13, β-arrestin 1 and β-arrestin 2 pathways was monitored. The ability of compounds of the invention to activate the NTS1 receptor was assessed using Bioluminescence Resonance Energy Transfer (BRET)-based biosensors, reporting the dissociation of G proteins (Table III, column EC50 Gq) and the recruitment of β-arrestins to the receptor (Table III, column EC50 βarr).

[2] = Plasma stability assay; type: in vitro ADME; details: rat plasma at 37° C.
Protocol: Rat plasma was obtained by centrifugation of rat blood (13000 rpm, 5 min, 4° C.). […] Proteolytic degradation was quenched by adding 70 μL of acetonitrile/ethanol (1:1), 0.5% nicotinamide solution and vortexing. […] Data were analyzed using GraphPad Prism 7's one phase decay equation.

[3] = system: rats; experiment: Blood pressure (hypotension); type: in vivo, rat; details: 0.01 mg/kg; for Arterial blood pressure response / Blood pressure drop, first phase / Blood pressure in phase 3: rat, i.v.
Protocol: Mean, systolic and diastolic arterial blood pressure and a heart rate were measured through a catheter (PE 50 filled with heparinized saline) inserted in the right carotid artery and connected to a Micro-Med™ transducer (model TDX-300, USA) linked to a blood pressure Micro-Med™ analyzer (model BPA-100c). Another catheter (PE 10 filled with heparinized saline) was inserted in the left jugular vein for injection of test compounds at 0.01 mg/kg (volume 1 mL/kg, 5-10 s) or 0.9% saline. Blood pressure was recorded each second for up to 900 seconds following intravenous injection.

[4] = molecular target: T2, rNTS2 receptor (Rattus norvegicus, UniProt Q63384); experiment: Competitive radioligand binding assay on the rNTS2 receptor; details: for inhibition at 1 µM: 1 μM macrocycle dose, read-out: NTS2 % displ at 1 μM (radiolabeled neurotensin displaced); for IC50: 125I-[Tyr3]-NT competition, rNTS2 membranes, read-out: NTS2 IC50
T2 construct: expressed in transfected cells; host or cells: DRG-F11 cells, transient transfection, membranes
T2 sequence (Q63384 1-416): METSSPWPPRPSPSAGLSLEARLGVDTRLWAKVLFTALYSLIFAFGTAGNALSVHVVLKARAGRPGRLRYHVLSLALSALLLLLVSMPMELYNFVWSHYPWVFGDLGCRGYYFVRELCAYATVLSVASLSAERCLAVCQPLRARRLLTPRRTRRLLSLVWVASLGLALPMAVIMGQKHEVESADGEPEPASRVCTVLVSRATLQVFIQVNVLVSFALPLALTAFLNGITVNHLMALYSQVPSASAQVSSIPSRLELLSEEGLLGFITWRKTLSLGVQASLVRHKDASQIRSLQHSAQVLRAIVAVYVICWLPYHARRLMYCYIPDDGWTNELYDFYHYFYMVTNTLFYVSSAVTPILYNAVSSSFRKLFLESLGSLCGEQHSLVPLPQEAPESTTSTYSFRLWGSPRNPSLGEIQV
Protocol: DRG-F11 cells were cultured in DMEM supplemented with 10% FBS, 100 U/mL penicillin, 100 μg/mL streptomycin, and 20 mM HEPES.
Membranes were prepared by scraping cells off the culture dish with 50 mM Tris ph 7.5 and centrifuged at 15,000 g for 5 min at 4° C. The pellet was resuspended in 10 mM Tris, 1 mM EDTA pH 7.5 and sonicated for 30 s prior to be centrifugated at 15,000 g for 30 min at 4° C. The pellet was then re-suspended in binding 9 buffer. […] All other steps in binding experiments were unchanged comparing to the one using the NTS1 receptor.

[5] = molecular target: T3, hNTS1 (β-arrestin 1 recruitment) (Homo sapiens, UniProt P30989); experiment: BRET biosensor assay, β-arrestin 1 recruitment; type: cell-based; details: CHO-K1 cells transiently transfected with hNTS1 and biosensors, mean ± SEM, read-out: EC50 β-arr1
T3 construct: expressed in transfected cells; host or cells: CHO-K1, transient transfection with PEI
Protocol: CHO-K1 cells were cultured in DMEM-F12 supplemented with 10% FBS, 100 U/mL penicillin, 100 μg/mL streptomycin, and 20 mM HEPES at 37° C. in a humidified chamber at 5% CO2. Cells were seeded into T75 flasks at a density of 20 000 cells/cm^2; 24 h later, cells were transfected with plasmids coding for hNTS1-Green fluorescent protein 10(GFP10)/Rluc (Renilla Luciferase)II-β-arrestin 1 or hNTS1-GFP10/RlucII-β-arrestin2, or with hNTS1/Gαq-RlucII/Gβ1/IGFP10-Gγ1 or hNTS1/Gα13-RlucII/Gβ1/GFP10-Gγ1 using polyethylenimine (PEI). Cells were transferred into 96-well plates at a concentration of 50 000 cells/well 24 h after transfection and incubated at 37° C. overnight. […] After stimulation, coelenterazine 400A was added in each well to a final concentration of 5 μM and the plate was read using filter selected for BRET2 measurement (BRET2 High efficiency filter set, λemRlucII: 410±80 nm, λemGFP10: 515±40 nm) on a Mithras 2 plate reader (Berthold Technologies, Tennessee, USA). BRET2 ratio was determined as GFP10em/RlucIIem. […] EC50 (Effective Concentration 50) values were determined using the dose response-stimulation log(agonist) vs response (three parameters) and represent the mean±SEM of at least three separate experiments, each performed in triplicate.
NTS1 is capable of activating several signaling pathways, thus the activation of Gαq, Gα13, β-arrestin 1 and β-arrestin 2 pathways was monitored. […]

[6] = molecular target: hNTS1 receptor (Homo sapiens, UniProt P30989); experiment: Competitive radioligand binding assay on the hNTS1 receptor; details: 125I-[Tyr3]-NT competition, hNTS1 membranes; mean ± SEM; read-out: NTS1 IC50
Protocol: CHO-K1 (Chinese Hamster Ovary) cells stably expressing hNTS1 (ES-690-C from PerkinElmer, Montréal, Canada) were cultured in DMEM F12 culture medium at 37° C. in a humidified chamber under 5% CO2. Culture media were supplemented with 10% FBS, 100 U/mL penicillin, 100 μg/mL streptomycin, 20 mM HEPES, and 0.4 mg/mL G418 at 37° C.
Cells were frozen when they reached 80% confluency. They were scrapped off the dish with 10 mM Tris buffer, 1 mM EDTA, pH 7.5 and centrifuged at 15,000 g for 5 min at 4° C. The pellet was then re-suspended in binding buffer.
Competitive radioligand binding experiments were performed by incubating 15 μg of cell membranes expressing the hNTS1 receptor with 45 pM of ^125I-[Tyr^3]-NT (2200 Ci/mmol purchased from PerkinElmer, Billerica, Mass.) in binding buffer (50 mM Tris-HCl, pH7.5, 0.2% BSA) in the presence of increasing concentrations of the compounds of the invention ranging from 10^−11 to 10^−4 M for 60 min at 25° C. […] Glass filters were then counted using a γ-counter (2470 Wizard2, PerkinElmer, Missisauga, Ontario, Canada).
IC50 (Inhibitory Concentration 50) values were determined from the competition curves as the unlabeled ligand concentration inhibiting half of the ^125I-[Tyr]-NT-specific binding. […]

[7] = BRET, CHO-K1 cells transiently transfected with hNTS1 and biosensors, mean ± SEM, read-out: EC50 β-arr2
[8] = 24 h is the longest time tested

T1 sequence (P30989 whole entry): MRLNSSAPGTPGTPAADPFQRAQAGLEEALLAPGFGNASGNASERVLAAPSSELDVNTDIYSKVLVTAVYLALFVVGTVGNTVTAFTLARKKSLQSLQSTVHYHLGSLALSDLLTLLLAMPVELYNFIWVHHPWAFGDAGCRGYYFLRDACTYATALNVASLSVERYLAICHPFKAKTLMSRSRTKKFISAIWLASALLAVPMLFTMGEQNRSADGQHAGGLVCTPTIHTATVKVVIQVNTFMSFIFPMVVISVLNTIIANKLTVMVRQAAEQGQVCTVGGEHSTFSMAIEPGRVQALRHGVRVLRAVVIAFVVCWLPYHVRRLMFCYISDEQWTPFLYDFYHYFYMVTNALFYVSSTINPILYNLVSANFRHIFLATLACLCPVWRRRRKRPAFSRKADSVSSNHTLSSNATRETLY
T1 sequence (P32121 whole entry partner): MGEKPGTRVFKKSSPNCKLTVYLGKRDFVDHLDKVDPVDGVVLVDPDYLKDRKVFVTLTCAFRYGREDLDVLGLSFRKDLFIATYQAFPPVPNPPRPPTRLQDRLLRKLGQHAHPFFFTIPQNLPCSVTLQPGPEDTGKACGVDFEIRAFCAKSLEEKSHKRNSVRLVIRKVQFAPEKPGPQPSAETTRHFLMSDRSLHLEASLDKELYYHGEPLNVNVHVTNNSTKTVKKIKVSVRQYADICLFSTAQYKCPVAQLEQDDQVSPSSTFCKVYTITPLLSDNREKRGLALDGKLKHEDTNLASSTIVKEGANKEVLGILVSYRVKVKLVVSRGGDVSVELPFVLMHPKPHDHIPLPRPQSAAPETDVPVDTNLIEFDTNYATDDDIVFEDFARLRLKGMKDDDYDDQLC
hNTS1 receptor, sequence (P30989 whole entry): as the sequence (P30989 whole entry) above
T3 sequence (P30989 whole entry): as above
T3 sequence (P49407 whole entry partner): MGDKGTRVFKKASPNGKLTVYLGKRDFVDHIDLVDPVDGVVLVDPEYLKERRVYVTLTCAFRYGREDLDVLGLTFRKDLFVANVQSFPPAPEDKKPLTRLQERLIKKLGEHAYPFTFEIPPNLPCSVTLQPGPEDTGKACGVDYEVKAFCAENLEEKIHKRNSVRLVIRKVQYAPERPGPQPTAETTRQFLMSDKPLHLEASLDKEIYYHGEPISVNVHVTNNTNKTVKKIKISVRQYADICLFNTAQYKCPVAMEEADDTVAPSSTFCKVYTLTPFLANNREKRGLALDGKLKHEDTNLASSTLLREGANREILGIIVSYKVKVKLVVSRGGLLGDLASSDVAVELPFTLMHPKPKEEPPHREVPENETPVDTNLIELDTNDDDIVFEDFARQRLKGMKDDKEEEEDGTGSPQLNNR

CCC(C)[C@H](NC(=O)[C@@H]1Cc2ccc(O)c(c2)CC=CCCCCCCC(=O)N[C@@H](CCCCN)C(=O)N2CCC[C@H]2C(=O)N1)C(=O)NC(CC(C)C)C(=O)O (stereo partly drawn) [Compound 1, c[nonenoic acid KPY(All)]IL]
EC50 [1, 7]: 1370 ± 126 nM | half-life at […] [2, 8]: 12 h

C=CCNCCCC[C@H](N)C(=O)N[C@@H](CCCCN)C(=O)N1CCC[C@H]1C(=O)N[C@@H](Cc1ccc(O)c(CC=C)c1)C(=O)N[C@H](C(=O)N[C@@H](CC(C)C)C(=O)O)C(C)CC (stereo partly drawn) [Compound 1-L, nonenoic acid KPY(All)IL]
Plasma half-life [2, 8]: 4 h

C=CCNCCCC[C@H](N)C(=O)N[C@@H](CCCCN)C(=O)N1CCC[C@H]1C(=O)N[C@@H](Cc1ccc(O)c(CC=C)c1)C(=O)N[C@H](C(=O)N[C@@H](CC(C)C)C(=O)O)C(C)CC (stereo partly drawn) [Compound 2-L, K(All)KPY(All)IL]
Plasma half-life [2]: 0.083 h

CCC(C)[C@H](NC(=O)[C@@H]1Cc2ccc(O)c(c2)CC=CCCCCCC[C@](C)(N)C(=O)N[C@@H](CCCCN)C(=O)N2CCC[C@H]2C(=O)N1)C(=O)N[C@@H](CC(C)C)C(=O)O (stereo partly drawn) [Compound 3, c[OctenylAKPY(All)]IL]
Hypotension (I.V.) [3]: Triphasique | Arterial blood pressure response [3]: triphasic | Blood pressure drop, first phase [3]: about −25 mmHg | Blood pressure in phase 3 [3]: slowly returned towards baseline | EC50 [1]: 28 ± 0.1 nM | inhibition at 1 µM [4]: 96% | IC50 [4]: 25.8 nM | Plasma half-life [2, 8]: 24 h

CCC(C)[C@H](NC(=O)[C@@H]1Cc2ccc(O)c(c2)CC=CCNCCCC[C@@H](N)C(=O)N[C@@H](CCCCN)C(=O)N2CCC[C@H]2C(=O)N1)C(=O)N[C@@H](CC(C)C)C(=O)O (stereo partly drawn) [Compound 4, c[K(All)KPY(All)]IL]
inhibition at 1 µM [4]: 93% | Plasma half-life [2, 8]: 24 h

CCC(C)[C@H](NC(=O)[C@@H]1Cc2ccc(O)c(c2)CC=CCN(S(=O)(=O)c2ccccc2[N+](=O)[O-])CCCC[C@H](N)C(=O)N[C@@H](CCCCN)C(=O)N2CCC[C@H]2C(=O)N1)C(=O)N[C@@H](CC(C)C)C(=O)O (stereo partly drawn) [Compound 5, c[K(All)(S(O)2(o-nitrophenyl))KPY(All)]IL]
inhibition at 1 µM [4]: 96% | IC50 [4]: 511 nM | half-life at […] [2, 8]: 1.4 h

CCC(C)[C@H](NC(=O)[C@@H]1Cc2ccc(O)c(c2)CC=CCNCCCCCC(=O)N[C@@H](CCCCN)C(=O)N2CCC[C@H]2C(=O)N1)C(=O)N[C@@H](CC(C)C)C(=O)O (stereo partly drawn) [Compound 6, c[aminohex-6-enoic acid(All)KPY(All)]IL]
EC50 [1, 7]: 96 ± 0.05 nM | EC50 [5]: 96 ± 0.07 nM | inhibition at 1 µM [4]: 93% | IC50 [6]: 500 ± 22 nM | Plasma half-life [2, 8]: 24 h

CCC(C)[C@H](NC(=O)[C@@H]1Cc2ccc(O)c(c2)CC=CCNCC[C@H](N)C(=O)N[C@@H](CCCCN)C(=O)N2CCC[C@H]2C(=O)N1)C(=O)N[C@@H](CC(C)C)C(=O)O (stereo partly drawn) [Compound 8, c[Dab(All)KPY(All)]IL]
inhibition at 1 µM [4]: 64% | half-life at […] [2, 8]: 2.5 h

CCC(C)[C@H](NC(=O)[C@@H]1Cc2ccc(O)c(c2)CC=CCCNCCCC[C@H](N)C(=O)N[C@@H](CCCCN)C(=O)N2CCC[C@H]2C(=O)N1)C(=O)N[C@@H](CC(C)C)C(=O)O (stereo partly drawn) [Compound 9, c[K(butenyl)KPY(All)]IL]
inhibition at 1 µM [4]: 104% | half-life at […] [2]: 0.25 h

CCC(C)[C@H](NC(=O)[C@@H]1Cc2ccc(O)c(c2)CC=CCCCNCCCC[C@H](N)C(=O)N[C@@H](CCCCN)C(=O)N2CCC[C@H]2C(=O)N1)C(=O)N[C@@H](CC(C)C)C(=O)O (stereo partly drawn) [Compound 10, c[K(pentenyl)KPY(All)]IL]
inhibition at 1 µM [4]: 105% | half-life at […] [2]: 0.3 h

CCC(C)[C@H](NC(=O)[C@@H]1Cc2ccc(O)c(c2)CC=CCCCCCCC(=O)N[C@@H](CCCNC(=N)N)C(=O)N2CCC[C@H]2C(=O)N1)C(=O)N[C@@H](CC(C)C)C(=O)O (stereo partly drawn) [Compound 11, c[nonenoic acid-RPY(All)]IL]
inhibition at 1 µM [4]: 78%

CCC(C)[C@H](NC(=O)[C@H]1Cc2ccc(O)c(c2)CC=CCCCCCC[C@](C)(N)C(=O)N[C@@H](CCCCN)C(=O)N2CCC[C@H]2C(=O)N1)C(=O)N[C@@H](CC(C)C)C(=O)O (stereo partly drawn) [Compound 12, c[OctenylAKPY(All)]IL]
IC50 [4]: 1100 nM | IC50 [6]: > 10000 nM

CCC(C)[C@H](NC(=O)[C@H](Cc1ccc(O)cc1)NC(=O)[C@@H]1CCCN1C(=O)[C@H](CCCNC(=N)N)NC(=O)[C@@H](N)CCCNC(=N)N)C(=O)N[C@@H](CC(C)C)C(=O)O (stereo partly drawn) [NT 8-13, RRPYIL, reference compound]
inhibition at 1 µM [4]: 100% | half-life at […] [2]: 0.05 h

CCOC(=O)[C@H](CC(C)C)NC(=O)[C@@H](NC(=O)[C@H](Cc1c[nH]c2ccccc12)NC(=O)[C@@H]1CCCN1C(=O)[C@H](CCCCN)NC[C@@H](N)CCCCN)C(C)(C)C [PD149163, H-Lys-[ψCH2NH]-Lys-Pro-Trp-tertLeu-Leu-OEt, reference compound] (H-[X3]PW[Tle]L-OEt)
Arterial blood pressure response [3]: triphasic | Blood pressure drop, first phase [3]: about −25 mmHg | Blood pressure in phase 3 [3]: more sustained
